The values that follow come from patent US20110105380A1, “Protection of Nano-Scale Particles from Immune Cell Uptake” (THE TRUSTEES OF THE UNIVERSITY OF PENNSYLVANIA, priority 2009, published 2011).

One assay addresses SHP-1 (Homo sapiens, UniProt P29350). The conditions noted are these: Chen et al., 2006; read-out: reported IC50 for SHP-1; cited from earlier work.
The test system of assay [1] is THP-1 macrophages. Description: SHP-1 inhibitor effect on phagocytosis of IgG-opsonized particles by THP-1 macrophages. Type of assay: cell-based, human. The protocol: FIG. 16, comprising FIG. 16A-16D, illustrates CD47-SIRPα signaling pathway from SHP-1 to myosin. Phagocytosis of IgG-opsonized particles with or without human CD47 of 100 nm particles (FIG. 16A) and 1.1 μm particles (FIG. 16B) were treated with an SHP-1 inhibitor (NSC-87877) at 62.5 nM and its effects were determined by the ratio of ingested particles per THP-1 phagocyte. The number of particles ingested was shown based on 200 phagocytes counted (n≧3, ±SD). The inset depicts the concentration dependence of NSC-87877 effect on particle uptake. Treatment of blebbistatin in THP-1 macrophages during phagocytosis of IgG-opsonized 100 nm particles (FIG. 16C) and 1.1 μm particles (FIG. 16D) depict inhibition of phagocytosis.
For phagocytosis assays with CD47 attached particles at 100 nm to 1.1 μm diameter were IgG-opsonized. THP-1 macrophage, PMA activated were treated with 0-0.5 μM NSC-87877 an SHP-1 Inhibitor (gift from Frank L. Conlon) 5 minutes prior to the addition of IgG-opsonized particles. Phagocytosis assay occurred at 37° C. for 45 minutes and then fixed for 5 minutes with 5% formaldehyde as described for the phagocytosis assay (Fisher Scientific).
To confirm the correlation between CD47 affect on inhibiting phagocytosis of both nano and micro sized particles, blocked SHP-1 should result in nullifying the CD47 signal. In order to specifically block SHP-1, an inhibitor NSC-87877 was used with a reported high specificity to SHP-1 (Chen et al., 2006, Mol. Pharmacol. 70(2):562-70; Langdon et al., 2007, Development 134(22):4119-30). […] The uptake of these particles was measured as the number of particles ingested per phagocyte.

The target of assay [2] is human CD47 on human red blood cells (human) (UniProt Q08722). Description: cell-based or functional assay.
Sequence of human CD47 on human red blood cells (human) (Q08722 other isoform, or with tags, fused parts or gaps limits assumed): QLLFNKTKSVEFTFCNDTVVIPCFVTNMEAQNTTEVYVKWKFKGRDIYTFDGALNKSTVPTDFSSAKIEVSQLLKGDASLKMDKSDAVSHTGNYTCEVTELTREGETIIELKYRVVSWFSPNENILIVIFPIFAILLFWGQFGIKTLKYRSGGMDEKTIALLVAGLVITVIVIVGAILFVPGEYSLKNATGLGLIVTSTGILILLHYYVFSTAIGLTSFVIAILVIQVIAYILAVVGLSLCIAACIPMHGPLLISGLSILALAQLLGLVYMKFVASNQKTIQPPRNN
Assay [3] relates to human peripheral blood monocytes. Description: Phagocytosis of hCD47 beads by human peripheral blood monocytes. Type of assay: cell-based. The following applies: FIG. 6D. The procedure:
FIG. 6, comprising […], illustrates that human-CD47 is sufficient to inhibit phagocytosis. FIG. 6A depicts streptavidin beads coated with both anti-streptavidin IgG as the opsonin and biotinylated human-CD47. Phagocytosis of beads by THP-1 cells was assessed in DIC and fluorescence with non-ingested beads visible with rabbit anti-streptavidin plus a second, goat anti-rabbit antibody. The scale bars are 10 μm. […] Inset bar graph compares to inhibited phagocytosis of uncoated beads after 10 min pretreatment of THP-1 cells with blebbistatin (50 μM). FIG. 6C depicts inhibition of phagocytosis depends on density of human-CD47 on beads. FIG. 6D depicts a bar graph comparing hCD47 inhibition of phagocytosis in peripheral blood monocytes.
The extracellular immunoglobulin-like domains of human CD47 (hCD47) was recombinantly expressed with a spacer domain (Brown et al., 1994, Protein Eng. 7:515-21; Brown et al., 1998, J. Exp. Med. 188:2083-90) plus a C-terminal biotinylation site. […] The beads were opsonized by pretreatment with anti-streptavidin to again induce FcR-mediated phagocytosis (for 45 minutes at 37° C.), and non-engulfed beads were detected with a flourescein anti-Fc against the IgG-opsonin. The number of adherent IgG-opsonized beads per phagocyte was independent of hCD47 (not shown). […]

For assay [4], the target named is THP-1 macrophages. Description: Phagocytosis of IgG-opsonized streptavidin beads with or without hCD47 by THP-1 macrophages. The following applies: for Ki (minimum hCD47 density to inhibit uptake): IgG-opsonized. Type of assay: cell-based, human. The protocol:
The extracellular immunoglobulin-like domains of human CD47 (hCD47) was recombinantly expressed with a spacer domain (Brown et al., 1994, Protein Eng. 7:515-21; Brown et al., 1998, J. Exp. Med. 188:2083-90) plus a C-terminal biotinylation site. […] The beads were opsonized by pretreatment with anti-streptavidin to again induce FcR-mediated phagocytosis (for 45 minutes at 37° C.), and non-engulfed beads were detected with a flourescein anti-Fc against the IgG-opsonin. The number of adherent IgG-opsonized beads per phagocyte was independent of hCD47 (not shown).
For phagocytosis assays, macrophages were plated in 4 cm^2, or 2 cm^2 Lab-Tek II Chambered Coverglass (Nalge Nunc International, Naperville, Ill.) at 1.5×10^5/cm^2. Streptavidin polystyrene beads of different radius: 3.5 μm, 1.1 μm, 160 nm (Spherotech) and 100 nm (Ademtech) were added to macrophages at a ratio of 2:1, 20:1, 277:1, and 2206:1 respectively and incubate at 37° C. for 45 min. […] Non-phagocytosed beads were washed with PBS. Cells were fixed with 5% formaldehyde (Fisher Scientific) for 5 minutes, followed by immediate replacement with PBS. For differentiation of non-internalized beads, beads were labeled with a primary antibody, rabbit anti-streptavidin (Sigma) at 1:1000 in PBS for 20 min at 25° C. A second antibody, anti-rabbit R-PE (Sigma) was added at 1:1000 in PBS to the cells and incubated for an additional 20 minutes at 25° C. Cells were then washed with PBS/0.4% BSA and then quantified by light and fluorescent microscopy. At least 200 cells were scored per well and experiments were repeated at least three times.
For stimulated phagocytosis assays, beads with or without CD47 were incubated with rabbit anti-streptavidin as the IgG opsonin. Beads were opsonized at a concentration 1:1000 for 30 min at 25° C. Opsonized beads were washed 2× and resuspended in 50 μl of PBS/0.4% BSA. Phagocytes were washed with PBS and uningested beads were labeled as described above.
For cytoskeletal involvement at the phagocytic synapse, streptavidin beads opsonized with rabbit anti-streptavidin FITC. Opsonized beads of different sizes were added to THP-1 cells, PMA treated and immediately placed at 4° C. for 10 min to synchronize phagocytosis. […] For studies involving blebbistatin (EMD Biosciences), macrophages were treated for 10 min at 4° C. prior to temperature increase to 37° C. or for 45 min and 37° C. Macrophages treated with DMSO were used to verify no solvent effects.
Beads were opsonized at saturating densities of IgG, and over a 20-fold range of CD47 densities, the number of internalized beads per THP-1 was measured. […] The normal level of CD47 density found on human RBC (Subramanian et al., 2006, Blood 107(6):2548-2556) was indicated by the vertical bars and humans with certain Rhnull phenotypes with reduced levels of CD47 (Mouro-Chanteloup et al., 2003, Blood 101 (1):338-344; Arndt et al., 2004, Br. J. Haematol. 125(3):412-4) was indicated by the vertical bars. The minimum number of CD47 inhibition appears to be consistent across a 30-fold particle size range as depicted by the vertical bars.

In assay [5] the target is THP-1 macrophages. The assay is described as above. The class given is cell-based, human. The following applies: particle radius 3.4 μm.
Setting [6] is: 100 nm particles, NSC-87877 62.5 nM.

Where “and” joins values, the source holds several entries; their conditions need not be identical. Equal entries are not always repeated. Marks after values point to notes of the source that are not given here.

Sequence of SHP-1 (P29350 whole entry): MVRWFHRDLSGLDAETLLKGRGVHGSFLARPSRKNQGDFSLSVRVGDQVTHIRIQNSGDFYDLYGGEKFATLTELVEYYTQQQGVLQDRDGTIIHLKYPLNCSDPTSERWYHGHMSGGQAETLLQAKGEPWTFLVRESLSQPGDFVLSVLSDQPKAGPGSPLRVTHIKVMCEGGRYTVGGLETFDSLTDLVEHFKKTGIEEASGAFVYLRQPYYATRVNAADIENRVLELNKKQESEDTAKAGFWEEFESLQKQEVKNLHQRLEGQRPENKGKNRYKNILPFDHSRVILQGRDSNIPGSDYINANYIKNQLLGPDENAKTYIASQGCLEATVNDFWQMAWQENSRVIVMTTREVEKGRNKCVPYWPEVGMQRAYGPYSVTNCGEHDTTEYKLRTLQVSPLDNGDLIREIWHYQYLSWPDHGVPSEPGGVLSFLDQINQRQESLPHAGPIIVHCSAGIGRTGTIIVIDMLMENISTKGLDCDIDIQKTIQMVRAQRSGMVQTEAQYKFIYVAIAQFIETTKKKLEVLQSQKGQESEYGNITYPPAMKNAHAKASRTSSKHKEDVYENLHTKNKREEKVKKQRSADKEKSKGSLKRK

Regarding `O=S(=O)(O)c1ccc2cc(N=Nc3cc(S(=O)(=O)O)c4cccnc4c3O)ccc2c1` [NSC-87877], the 50% inhibitory concentration (IC50) on SHP-1 was 500 nM. For the same molecule, in the assay on THP-1 macrophages [1] (setting [6]), the “particles ingested per phagocyte, beads without hCD47” value is given as “no statistical difference” and the “particles ingested per phagocyte, hCD47 particles” value was “an increase of ingested particles”. Further, the “uptake of 1.1 μm particles coated with hCD47” value in the assay with THP-1 macrophages [1] (NSC-87877, FIG. 16B) was “increase in uptake comparable to uncoated IgG-opsonized particles”.

On to “anti-CD47 F(ab')2 generated from monoclonal antibody B6H12”, for which the phagocytosis of IgG-opsonized human RBCs by human phagocytes after CD47 blocking in assay [2] was 2 fold and 3 fold.

In the case of “hCD47: extracellular immunoglobulin-like domains of human CD47 recombinantly expressed with a spacer domain plus C-terminal biotinylation site, attached to streptavidin-coated beads”, the “phagocytosis of beads bearing high densities of hCD47” value in assay [3] is on record as “similarly potent reduction in phagocytosis”. The “effective Ki of phagocytosis inhibition” value at THP-1 macrophages [4] (all particle sizes tested, micro to nano-meter beads (100 nm to 3.5 μm)) is “approximately 20 molecules/μm^2”; at THP-1 macrophages [4] (all particle sizes tested, micro to nano-meter beads (100 nm to 3.5 μm), listed as human CD47), roughly 20 molecules/μm^2; on THP-1 macrophages [4] (approximately 2.1 μm beads, FIG. 6C) it was “≈ 20 molecules/μm^2”. Also, the “Ki at high opsonin” value on THP-1 macrophages [4] (beads opsonized at saturating densities of IgG) was found to be 20 CD47/μm^2. The “Ki (minimum hCD47 density to inhibit uptake)” value at THP-1 macrophages [4] (particle radius 1.1 μm) is given as 20* molecules/μm^2; at THP-1 macrophages [4] (particle radius 100 nm), 19.9 molecules/μm^2; on THP-1 macrophages [4] (particle radius 160 nm), 13.6 molecules/μm^2; on THP-1 macrophages [5] it was 27.6 molecules/μm^2. Also, the “fraction of normal CD47 densities sufficient to inhibit phagocytosis” value in the assay on THP-1 macrophages [4] (relative to normal human RBC density) is 10-20%.

What is called IC50 is the concentration that gives 50% inhibition.
